{
  "source": "patent US7968561B2",
  "about": "“Steroidal compounds as steroid sulphatase inhibitors” (Sterix Limited, priority 2006, dated 2011)",
  "key": {"E1-STS [1]": {"biological_target": "T1, E1-STS (Homo sapiens, UniProt P08842)", "T1 construct": "endogenous in cells; host or cells: intact MCF-7 cells", "T1 sequence (P08842 22-583)": "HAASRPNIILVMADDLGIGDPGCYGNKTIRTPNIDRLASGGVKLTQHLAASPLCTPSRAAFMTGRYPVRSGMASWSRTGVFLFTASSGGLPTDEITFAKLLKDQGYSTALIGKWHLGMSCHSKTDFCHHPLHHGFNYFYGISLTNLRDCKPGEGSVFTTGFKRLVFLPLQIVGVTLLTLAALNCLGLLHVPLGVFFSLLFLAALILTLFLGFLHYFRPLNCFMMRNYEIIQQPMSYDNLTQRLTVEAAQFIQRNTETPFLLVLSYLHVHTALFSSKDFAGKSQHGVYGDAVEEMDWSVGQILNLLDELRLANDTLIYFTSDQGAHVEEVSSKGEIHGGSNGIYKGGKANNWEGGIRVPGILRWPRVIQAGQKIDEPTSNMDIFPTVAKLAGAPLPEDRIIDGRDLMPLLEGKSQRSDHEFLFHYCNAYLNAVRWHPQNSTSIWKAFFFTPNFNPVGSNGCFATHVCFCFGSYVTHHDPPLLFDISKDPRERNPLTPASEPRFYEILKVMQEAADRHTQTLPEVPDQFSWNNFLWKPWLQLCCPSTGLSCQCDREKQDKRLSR", "design": "dose or concentration left out as unconfirmed", "conditions": "intact MCF-7 cells; cited from earlier work"}, "E1-STS [2]": {"biological_target": "T2, E1-STS (Rattus norvegicus, UniProt P15589)", "T2 construct": "host or cells: rat liver", "T2 sequence (P15589 20-577)": "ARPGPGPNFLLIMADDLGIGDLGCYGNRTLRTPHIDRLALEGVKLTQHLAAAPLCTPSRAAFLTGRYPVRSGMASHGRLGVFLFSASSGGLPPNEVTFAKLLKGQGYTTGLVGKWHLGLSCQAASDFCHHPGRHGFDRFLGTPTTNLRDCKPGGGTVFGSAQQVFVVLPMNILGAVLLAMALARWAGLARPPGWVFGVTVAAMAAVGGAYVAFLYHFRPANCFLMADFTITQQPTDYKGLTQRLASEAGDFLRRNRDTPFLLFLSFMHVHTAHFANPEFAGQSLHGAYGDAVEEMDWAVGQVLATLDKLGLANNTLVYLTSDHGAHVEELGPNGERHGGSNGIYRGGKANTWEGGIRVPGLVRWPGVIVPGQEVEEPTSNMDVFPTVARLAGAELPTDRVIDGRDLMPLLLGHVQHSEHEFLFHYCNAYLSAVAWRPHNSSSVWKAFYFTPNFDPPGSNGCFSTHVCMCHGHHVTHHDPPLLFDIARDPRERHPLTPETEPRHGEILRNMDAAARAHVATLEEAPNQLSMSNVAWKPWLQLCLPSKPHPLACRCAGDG", "conditions": "administered orally or subcutaneously; cited from earlier work"}, "[3]": {"biological_target": "T3, dehydroepiandrosterone sulphatase (DHA-STS) (Rattus norvegicus, UniProt P15589)", "T3 construct": "host or cells: rat liver", "T3 sequence (P15589 20-577)": "T2 sequence (P15589 20-577)", "conditions": "administered orally or subcutaneously; cited from earlier work"}, "[4]": {"conditions": "rats; cited from earlier work"}, "[5]": {"tested_on": "MCF-7STS cells (MCF-7 cells over expressing STS)", "test": "Growth of E2S-stimulated MCF-7STS xenograft tumours in nude mice", "assay_type": "in vivo", "conditions": "Study 2: 1 mg/kg p.o. once per week for 7 weeks", "method": "Ovariectomised, athymic female MF-1 nude mice (nu/nu) (age 6-8 weeks) were obtained from Harlan Olac. Twenty four hours before the inoculation of MCF-7STS cells animals were injected s.c. with estradiol sulphate (E2S). On the day of inoculation 5×10^6 MCF-7STS cells (50 μl in Matrigel) were injected s.c. into the right flank of the mice. After cell inoculation mice were injected with E2S (100 μg/50 μl) and received another injection of these steroids 24 h later. Mice then received E2S 3 times per week until the end of the study. […] Tumour measurements and the weight of animals were recorded weekly. Samples of tumour and liver tissues together with blood were collected at a number of time points after the cessation of dosing.\nTumours were measured weekly and their volumes calculated using the equation length×width^2/2.\nStudent's t test was used to assess the significance of the differences in tumour volumes for the different groups."}, "STS [6]": {"biological_target": "T4, STS (Mus musculus, UniProt P50427)", "T4 construct": "from tissue; host or cells: liver of MF-1 nude mice, homogenate", "T4 sequence (P50427 23-624)": "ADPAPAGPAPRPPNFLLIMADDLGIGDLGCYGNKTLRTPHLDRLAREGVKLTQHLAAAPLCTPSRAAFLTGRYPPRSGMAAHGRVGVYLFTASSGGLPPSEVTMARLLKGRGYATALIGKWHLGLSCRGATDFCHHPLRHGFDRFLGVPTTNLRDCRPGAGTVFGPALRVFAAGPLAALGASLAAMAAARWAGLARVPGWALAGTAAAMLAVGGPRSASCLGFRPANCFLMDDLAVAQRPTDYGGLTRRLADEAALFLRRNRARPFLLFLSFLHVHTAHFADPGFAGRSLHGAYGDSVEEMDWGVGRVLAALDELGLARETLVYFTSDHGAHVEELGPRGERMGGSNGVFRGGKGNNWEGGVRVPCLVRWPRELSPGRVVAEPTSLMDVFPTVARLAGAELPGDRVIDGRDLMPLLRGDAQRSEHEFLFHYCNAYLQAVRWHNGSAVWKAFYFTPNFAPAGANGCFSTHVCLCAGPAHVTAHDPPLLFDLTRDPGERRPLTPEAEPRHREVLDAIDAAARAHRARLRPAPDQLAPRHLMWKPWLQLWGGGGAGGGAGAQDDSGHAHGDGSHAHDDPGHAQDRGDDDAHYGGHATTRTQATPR", "test": "Liver STS activity in MCF-7STS xenograft mice", "assay_type": "in vivo", "conditions": "Study 2: 1 mg/kg p.o. once per week", "experimental": "(§1) Ovariectomised, athymic female MF-1 nude mice (nu/nu) (age 6-8 weeks) were obtained from Harlan Olac. Twenty four hours before the inoculation of MCF-7STS cells animals were injected s.c. with estradiol sulphate (E2S). On the day of inoculation 5×10^6 MCF-7STS cells (50 μl in Matrigel) were injected s.c. into the right flank of the mice. After cell inoculation mice were injected with E2S (100 μg/50 μl) and received another injection of these steroids 24 h later. Mice then received E2S 3 times per week until the end of the study. When tumours had reached approximately 80 mm^3 dosing was initiated with compounds being administered orally (100 μl; vehicle 10% THF: 90% propylene glycol) at 1 mg/kg. Tumour measurements and the weight of animals were recorded weekly. Samples of tumour and liver tissues together with blood were collected at a number of time points after the cessation of dosing.\nSamples of tumour or liver tissues were homogenised in phosphate buffered saline (pH 7.4 containing 250 mM sucrose). Duplicate aliquots were incubated for 4 h with [^3H-E1S] […] An aliquot of the toluene was removed and the ^3H and ^14C radioactivity measured by liquid scintillation spectrometry. The mass of oestrone sulphate hydrolysed was calculated form the ^3H counts detected, corrected for procedural losses."}, "steroid sulphatase (STS)": {"biological_target": "T5, steroid sulphatase (STS) (Homo sapiens, UniProt P08842)", "T5 construct": "endogenous in cells; host or cells: JEG-3 cells", "T5 sequence (P08842 22-583)": "T1 sequence (P08842 22-583)", "test": "IC50 for steroid sulphatase inhibition measured in JEG-3 cells", "assay_type": "cell-based"}, "STS [7]": {"biological_target": "T6, STS (Rattus norvegicus, UniProt P15589)", "T6 construct": "from tissue; host or cells: rat liver", "T6 sequence (P15589 20-577)": "T2 sequence (P15589 20-577)", "test": "STS activity in rat livers 15 days after a single p.o. dose", "assay_type": "in vivo", "conditions": "rat liver"}, "[8]": {"test": "Plasma oestradiol concentrations by radioimmunoassay", "assay_type": "in vivo, mice", "conditions": "Study 2: once weekly dosing, extended period after cessation of dosing", "experimental": "as §1\nPlasma oestradiol concentrations were measured by a specific radioimmunoassay procedure."}},
  "data": [
    {"smiles": "C[C@]12CC[C@@H]3c4ccc(OS(N)(=O)=O)cc4CC[C@H]3[C@@H]1CCC2=O", "note": "[EMATE, estrone-3-O-sulfamate]", "values": [
      {"measurement": "inhibition of E1-STS activity", "setting": "E1-STS [1]", "result": "more than 99%"},
      {"measurement": "inhibition of rat liver E1-STS activity", "setting": "E1-STS [2]", "result": 99, "unit": "%"},
      {"measurement": "inhibition of rat liver DHA-STS activity", "setting": "[3]", "result": 99, "unit": "%"},
      {"measurement": "oral uterotrophic activity relative to oestradiol", "setting": "[4]", "result": 100, "unit": "times"}
    ]},
    {"smiles": "NS(=O)(=O)Oc1ccc2c3c(c(=O)oc2c1)CCCCC3", "note": "[STX64]", "values": [
      {"measurement": "tumour growth", "setting": "[5]", "result": "ineffective"},
      {"measurement": "reduction of liver STS activity", "setting": "STS [6]", "result": "25-50%"}
    ]},
    {"smiles": "CCCN1C(=O)CC2C3CCc4cc(OS(N)(=O)=O)ccc4C3CC[C@]2(C)C1=O", "note": "(some centres unmarked) [STX213]", "values": [
      {"measurement": "IC50", "setting": "steroid sulphatase (STS)", "result": 0.18, "unit": "nM"},
      {"measurement": "STS activity recovered", "setting": "STS [7]", "result": 69, "unit": "%"},
      {"measurement": "inhibition of STS activity", "setting": "STS [7]", "result": 31, "unit": "%"}
    ]},
    {"smiles": "C[C@]12CCC3c4ccc(OS(N)(=O)=O)cc4CCC3C1CC(=O)N(CCC(F)(F)F)C2=O", "note": "(some centres unmarked) [STX1938, 3-Sulfomoyloxy-N-(3,3,3-trifluoropropyl)-16,17-seco-Estra-1,3,5(10)-triene-16,17-imide]", "values": [
      {"measurement": "inhibition of liver STS", "setting": "STS [6]", "result": "almost complete inhibition"},
      {"measurement": "plasma oestradiol levels", "setting": "[8]", "result": "significantly reduced"}
    ]}
  ]
}
